For test [1], the system named is RNA polymerase II Serine 5 phosphorylation in A549 cells overexpressing CDK7 mutant (C312S). Put plainly: Imaging-based cellular RNA PolII Ser5 phosphorylation assay in A549 cells overexpressing CDK7-mutant (C312S). It is filed as cell-based, human. The note with it: Homo sapiens, A549, A549 cells overexpressing CDK7 mutant (C312S); read-out: CDK7_ A549 mutant hCDK7(pIC50) (converted). An outline of the steps:
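A stably transduced A549 pool overexpressing CDK7 C312S, a mutant that blocks covalent binding at Cys312, while retaining endogenous wild-type CDK7 was used. Ser5 phosphorylation was measured by imaging, and IC50 values were derived.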

Test [2] concerns RNA polymerase II Serine 5 phosphorylation (CDK7) in A549 cells.
From the text: To evaluate inhibition of CDK7 kinase activity, a 384-well automated imaging assay was used. This assay detects Serine 5 phosphorylation on a unique heptapeptide sequence in the C-terminal domain of Rpb1 subunit of RNA polymerase II, the downstream substrate of CDK7. This heptapeptide sequence is repeated up to 52 times in the CTD of Rpb1.
RNA Polymerase II Serine 5 phosphorylation was detected using a specific rabbit Phospho-Rpb1 CTD (Ser5) antibody. A549 adenocarcinoma human alveolar basal epithelial cells were seeded in 20 μl medium (DMEM supplemented with 1% Fetal Bovine Serum (heat inactivated 30′ 56° C.), 2 mM L-glutamine, 50 U/ml penicillin 50 μg/ml streptomycin, 1 mM sodium pyruvate and 50 mM hepes) at 1000 cells/well and cultured in poly-D-lysine coated μclear 384 black plates for 20 hours at 37° C. and 5% CO2.
After incubation cells were challenged with compound for 3 hours at 37° C. and 5% CO2. DMSO was used as high control and as low control 10 μM of the following reference compound was used:
40 nl of test compounds and controls were spotted in cell plates using Echo Liquid Handler (Echo 550, Labcyte). Incubation was followed by 20 minutes fixation with 20 μl 10% formaldehyde at room temperature. Medium/formaldehyde solution was removed, plates were washed 3 times with 30 μl D-PBS (w/o Ca^2+ and Ma^2+) and permeabilization was done by adding 20 μl ice cold methanol for 20 minutes. Cells were washed again 3 times with 30 μl D-PBS and 20 μl blocking buffer (25 ml fetal bovine serum in 500 ml D-PBS) was added for 1 hour.
After removing blocking buffer 20 μl 1/1000 primary antibody rabbit Phospho-Rpb1 CTD (Ser5) antibody was added which binds to the phosphorylated Serine5 of the heptapeptide sequences in the CTD of Rpb1. […] Last, plates were washed 2 times with 30 μl D-PBS and wells were filled with 40 μL D-PBS, plates were sealed (Thermowell sealing tape) and stored at 4° C. until reading. Plates were read with Opera Phenix (Perkin Elmer) with 10× air objective. Data were calculated and analyzed in Phaedra.
IC50 values were calculated using the following formula
Average value of all HC's and all LC's are used for normalizations.
% Effect=100−(sample-LC)/(HC-LC)×100
% Control=(sample/HC)×100
From this an IC50 value can be obtained. An estimate of the slope of the plot in terms of the Hill coefficient is also obtained.
The target of test [3] is CDK7/cyclinH/MAT1 trimeric complex (Homo sapiens (Human), UniProt P50613). Put plainly: In vitro CDK7 assay, potency of irreversible covalent inhibitors (kinact/KI). The note with it: for Ki: CDK7 (20 nM enz.) (KI, μM); for kinact: read-out: CDK7 (20 nM enz.) (kinact, s^−1), 20 nM enz.
The mark [4] stands for this setting: read-out: CDK7 (20 nM enz.) (kinact/ KI, M^−1*s^−1), 20 nM enz.
Setting [5] is: read-out: CDK7 (20 nM enz.) (kobs/[I], M^−1*s^−1), 20 nM enz.

The structures appear in SMILES notation. Where “and” joins values, the source holds several entries; their conditions need not be identical. Equal entries are not always repeated. Where two headings read alike, the source gives them in different places.

By kinact is commonly meant the maximal first-order rate at which the target is inactivated.

Sequence of CDK7/cyclinH/MAT1 trimeric complex (P50613 whole entry): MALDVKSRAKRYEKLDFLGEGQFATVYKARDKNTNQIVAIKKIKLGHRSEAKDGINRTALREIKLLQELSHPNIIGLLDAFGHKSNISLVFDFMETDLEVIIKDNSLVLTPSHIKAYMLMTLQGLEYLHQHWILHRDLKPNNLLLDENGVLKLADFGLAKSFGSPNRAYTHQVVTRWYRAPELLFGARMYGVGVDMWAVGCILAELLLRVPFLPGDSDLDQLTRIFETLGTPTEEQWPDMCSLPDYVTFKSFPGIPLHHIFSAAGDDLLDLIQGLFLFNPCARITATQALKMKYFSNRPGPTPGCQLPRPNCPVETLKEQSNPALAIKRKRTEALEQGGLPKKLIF
Sequence of CDK7/cyclinH/MAT1 trimeric complex (P51946 whole entry partner): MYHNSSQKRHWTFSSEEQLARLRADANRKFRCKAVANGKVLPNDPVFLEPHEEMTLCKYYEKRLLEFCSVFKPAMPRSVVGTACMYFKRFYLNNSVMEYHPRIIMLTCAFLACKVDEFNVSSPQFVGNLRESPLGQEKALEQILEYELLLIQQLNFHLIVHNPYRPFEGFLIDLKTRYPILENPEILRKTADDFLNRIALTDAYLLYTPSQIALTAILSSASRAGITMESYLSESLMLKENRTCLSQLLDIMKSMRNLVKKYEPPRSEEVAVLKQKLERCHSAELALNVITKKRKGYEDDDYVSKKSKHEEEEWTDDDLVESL
Sequence of CDK7/cyclinH/MAT1 trimeric complex (P51948 whole entry partner): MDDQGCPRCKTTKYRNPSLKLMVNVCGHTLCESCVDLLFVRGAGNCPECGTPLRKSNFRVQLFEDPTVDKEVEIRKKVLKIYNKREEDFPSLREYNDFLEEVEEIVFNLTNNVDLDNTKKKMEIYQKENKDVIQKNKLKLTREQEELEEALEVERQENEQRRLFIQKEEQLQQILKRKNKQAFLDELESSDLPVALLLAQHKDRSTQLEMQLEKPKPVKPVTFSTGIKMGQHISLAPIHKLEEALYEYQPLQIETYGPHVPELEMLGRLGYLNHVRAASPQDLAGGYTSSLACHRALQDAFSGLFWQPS

Consider `C=CC(=O)N1CC(N2CCC(c3cc(C)c4c(c3)Nc3ncnc(N5CCC(S(C)(=O)=O)C5)c3CO4)CC2)C1` (stereo not shown) [compound 65], for which the IC50 in test [1] is more than 10000 nM; in test [2], 6460 nM. In test [3] (20 nM enz.), the Ki stood at 4.12 µM. In addition, the kinact in test [3] turned out to be 0.0001 s⁻¹. Further, in test [3] (setting [4]), the kinact/KI is 24.3 M⁻¹ s⁻¹.
On the same counts, the results for `C=CC(=O)N1CC(N2CCC(c3cc(C)c4c(c3)Nc3ncnc(N5CCCC(C#N)C5)c3CO4)CC2)C1` (stereo not shown) [compound 67] are more than 10000 nM, 1320 nM, 1.2 µM, 0.000103 s⁻¹ and 85.8 M⁻¹ s⁻¹.
With `C=CC(=O)N1CC(N2CCC(c3cc(C)c4c(c3)Nc3ncnc(N5CCC(C#N)CC5)c3CO4)CC2)C1` [compound 69], the IC50 in test [1] was more than 10000 nM; in test [2], 1580 nM. Besides, the Ki in test [3] (20 nM enz.) stood at 1.1 µM. In addition, the kinact in test [3] turned out to be 6.3e-05 s⁻¹. Further, the kinact/KI in test [3] (setting [4]) was 57.2 M⁻¹ s⁻¹.
For `C=CC(=O)N1CC(N2CCC(c3cc(C)c4c(c3)Nc3ncnc(N5CCS(=N)(=O)CC5)c3CO4)CC2)C1` [compound 72], the IC50 is 832 nM in test [1] and 138 nM in test [2]. The kinact/KI in test [3] (setting [5]) was determined as 1090 M⁻¹ s⁻¹.
For `C=CC(=O)N1CCC(N2CC(c3cc(C#N)c4c(c3)Nc3ncnc(-c5cnn(C)c5)c3CO4)C2)CC1` [compound 73], the figures for the IC50 in test [1] and in test [2] were more than 10000 nM and 1660 nM, respectively. The same molecule had a Ki in test [3] (20 nM enz.) of 1.24 µM. In addition, in test [3], the kinact came to 3.75e-05 s⁻¹. Moreover, in test [3] (setting [4]), the kinact/KI is 30.2 M⁻¹ s⁻¹.
On the same counts, the results for `C=CC(=O)N1CC(N2CCC(c3cc(C#N)c4c(c3)Nc3ncnc(-c5cnn(C)c5)c3CO4)CC2)C1` [compound 74] are more than 10000 nM, 1170 nM, 0.132 µM, 5.42e-05 s⁻¹ and 412 M⁻¹ s⁻¹.
On the same counts, the results for `C=CC(=O)N1CC(N2CCC(c3cc(C)c4c(c3)Nc3ncnc(-c5ccnn5C)c3CO4)CC2)C1` [compound 80] are more than 10000 nM, 219 nM, 0.32 µM, 4.18e-05 s⁻¹ and 131 M⁻¹ s⁻¹.
On the same counts, the results for `C=CC(=O)N1CC(N2CCC(c3cc(C)c4c(c3)Nc3ncnc(-c5cn(C)nc5C)c3CO4)CC2)C1` [compound 81] are more than 10000 nM, 363 nM, 0.31 µM, 4.82e-05 s⁻¹ and 156 M⁻¹ s⁻¹.
Consider `C=CC(=O)N1CC(N2CCC(c3cc(C)c4c(c3)Nc3ncnc(-c5cncc(OCC)c5)c3CO4)CC2)C1` [compound 82], for which the IC50 in test [1] was more than 10000 nM; in test [2], 1260 nM. In test [3] (20 nM enz.), this molecule returned a Ki of 1.28 µM. Besides, the kinact in test [3] came to 4.27e-05 s⁻¹. The kinact/KI in test [3] (setting [4]) is 33.4 M⁻¹ s⁻¹.
The like results for `C=CC(=O)N1CC(N2CC(c3cc(C)c4c(c3)Nc3ncnc(N5CCOCC5)c3C(C)O4)C2)C1` (stereo not shown) [compound 103] were, in that order, more than 10000 nM, approximately 1020 nM, 0.32 µM, 5.08e-05 s⁻¹ and 159 M⁻¹ s⁻¹.
As for `C=CC(=O)N1CCC(N2CCC(c3cc(C)c4c(c3)Nc3ncnc(N5CCS(=N)(=O)CC5)c3CO4)CC2)C1` (stereo not shown) [compound 104], the results for the IC50 in test [1] and in test [2] were more than 10000 nM and 50.1 nM, respectively. Besides, the kinact/KI in test [3] (setting [5]) stood at 1140 M⁻¹ s⁻¹.
`C=CC(=O)N1CCC(N2CC(c3cc(C)c4c(c3)Nc3ncnc(N5CCS(=N)(=O)CC5)c3CO4)C2)CC1` [compound 105]: the IC50 was more than 10000 nM in test [1] and 282 nM in test [2]. Also, in test [3] (20 nM enz.), the Ki worked out at 0.121 µM. Besides, in test [3], the kinact was 3.13e-05 s⁻¹. In test [3] (setting [4]), the kinact/KI came out at 259 M⁻¹ s⁻¹.
The like results for `C=CC(=O)N1CC(N2CCC(c3cc(C#N)c4c(c3)Nc3ncnc(N5CCOCC5)c3CO4)CC2)C1` [compound 106] were, in that order, more than 10000 nM, 245 nM, 0.0858 µM, 6.75e-05 s⁻¹ and 786 M⁻¹ s⁻¹.
The like results for `C=CC(=O)N1CC(N2CC(c3cc(C)c4c(c3)Nc3ncnc(N5CCS(=N)(=O)CC5)c3CO4)C2)C1` [compound 110] were, in that order, more than 10000 nM, 813 nM, 0.0322 µM, 4.3e-05 s⁻¹ and 1330 M⁻¹ s⁻¹.
On the same counts, the results for `C=CC(=O)N1CC(N2CC(c3cc(C)c4c(c3)Nc3ncnc(N5CCS(=O)(=O)CC5)c3CO4)C2)C1` [compound 111] are more than 10000 nM, 288 nM, 0.112 µM, 0.000116 s⁻¹ and 1030 M⁻¹ s⁻¹.
In the case of `C=CC(=O)N1CC(N2CCC(c3cc(C)c4c(c3)Nc3ncnc(N5CCC(CCO)C5)c3CO4)CC2)C1` (stereo not shown) [compound 113], the IC50 in test [1] was more than 10000 nM; in test [2] it was 9120 nM. In addition, the kinact in test [3] came out at 3.36e-06 s⁻¹.
In the case of `C=CC(=O)N1CCC(N2CC(c3cc(C#N)c4c(c3)Nc3ncnc(N5CCOCC5)c3CO4)C2)CC1` [compound 120], the IC50 in test [1] is more than 10000 nM; in test [2], 525 nM. For the same molecule, the Ki in test [3] (20 nM enz.) was 0.295 µM. In test [3], the kinact came to 3.8e-05 s⁻¹. In addition, the kinact/KI in test [3] (setting [4]) came out at 129 M⁻¹ s⁻¹.
Take `CC#CC(=O)N1CCC(N2CC=C(c3cc(C)c4c(c3)Nc3ncnc(N5CCS(=O)(=O)CC5)c3CO4)CC2)CC1` [compound 138]: the IC50 is more than 10000 nM in test [1] and 46.8 nM in test [2]. The molecule further yielded a Ki in test [3] (20 nM enz.) of 0.0908 µM. The kinact in test [3] was determined as 7.15e-05 s⁻¹. The kinact/KI in test [3] (setting [4]) was 788 M⁻¹ s⁻¹.
On the same counts, the results for `CC#CC(=O)N1CC(C)(N2CCC(c3cc(C)c4c(c3)Nc3ncnc(N5CCS(=O)(=O)CC5)c3[C@@H](C)O4)CC2)C1` [compound 144] are more than 10000 nM, approximately 46.8 nM, 0.00389 µM, 4.73e-05 s⁻¹ and 12200 M⁻¹ s⁻¹.
With `CC#CC(=O)N1CC(N2CCC(c3cc(C)c4c(c3)Nc3ncnc(N5CCS(=O)(=O)CC5)c3[C@@H](C)O4)CC2)C1` [compound 148], in test [1], the IC50 is more than 10000 nM. In addition, in test [2], the IC50 is 42.7 nM and 60.3 nM and 75.9 nM and 63.1 nM and ~61.7 nM. For the same molecule, in test [3] (20 nM enz.), the “CDK7 (20 nM enz.) (kinact, s^−1)” value was 6.08e-05 s⁻¹ and 5.32e-05 s⁻¹ and 4.3e-05 s⁻¹; the “CDK7 (20 nM enz.) (kobs/[I], M^−1*s^−1)” value amounted to 1230.83 M⁻¹ s⁻¹; the Ki was 0.0218 µM and 0.0473 µM and 0.0348 µM and 0.00601 µM. Besides, in test [3], the kinact amounted to 4.04e-05 s⁻¹. Moreover, the kinact/KI in test [3] (setting [5]) is 952 M⁻¹ s⁻¹.
With `CC#CC(=O)N1CCC(N2CCN(c3cc(C)c4c(c3)Nc3ncnc(N5CCS(=O)(=O)CC5)c3[C@@H](C)O4)CC2)CC1` [compound 154], the IC50 in test [1] is more than 10000 nM; in test [2] it was approximately 53.7 nM. For the same molecule, the Ki in test [3] (20 nM enz.) amounted to 0.00416 µM. Besides, the kinact in test [3] came out at 5.87e-05 s⁻¹. Besides, in test [3] (setting [4]), the kinact/KI came out at 14100 M⁻¹ s⁻¹.
On the same counts, the results for `CC#CC(=O)N1CC(N2CCN(c3cc(C)c4c(c3)Nc3ncnc(N5CCS(=O)(=O)CC5)c3[C@@H](C)O4)CC2)C1` [compound 155] are more than 10000 nM, 214 nM, 0.00172 µM, 2.06e-05 s⁻¹ and 12200 M⁻¹ s⁻¹.
Consider `[2H]C1(N2CCC(c3cc(C)c4c(c3)Nc3ncnc(N5CCS(=O)(=O)CC5)c3[C@@H](C)O4)CC2)CN(C(=O)C#CC)C1` [compound 160], for which the figures for the IC50 in test [1] and in test [2] were more than 10000 nM and 115 nM, respectively. In test [3] (20 nM enz.), this molecule registered a Ki of 0.0135 µM. In addition, the kinact in test [3] turned out to be 9.88e-05 s⁻¹. For the same molecule, in test [3] (setting [4]), the kinact/KI came out at 7340 M⁻¹ s⁻¹.
As for `C#Cc1cc(C2CCN(C3CN(C(=O)C=C)C3)CC2)cc2c1O[C@@H](C)c1c(ncnc1N1CCS(=O)(=O)CC1)N2` [compound 190], the IC50 is more than 10000 nM in test [1]; ~50.1 nM and ~40.7 nM in test [2]. Further, in test [3] (setting [5]), the kinact/KI turned out to be 839 M⁻¹ s⁻¹.
For the molecule `C#Cc1cc(C2CCN(C3CN(C(=O)C#CC)C3)CC2)cc2c1O[C@@H](C)c1c(ncnc1N1CCS(=O)(=O)CC1)N2` [compound 191], the IC50 was more than 10000 nM in test [1] and 191 nM in test [2]. In test [3] (20 nM enz.), this molecule yielded a Ki of 0.1 µM. In addition, in test [3], the maximal inactivation rate constant (kinact) was 8.29e-05 s⁻¹. Also, the kinact/KI in test [3] (setting [4]) was 809 M⁻¹ s⁻¹.
On the same counts, the results for `C#Cc1cc(C2CCN(C3CN(C(=O)C#CC)C3)CC2)cc2c1O[C@H](C)c1c(ncnc1N1CCS(=O)(=O)CC1)N2` [compound 192] are more than 10000 nM, 457 nM, 0.856 µM, 8.38e-05 s⁻¹ and 103 M⁻¹ s⁻¹.
Consider `C#Cc1cc(C2CN([C@H]3CCN(C(=O)C=C)C3)C2)cc2c1O[C@H](C)c1c(ncnc1N1CCS(=O)(=O)CC1)N2` [compound 193], for which the IC50 in test [1] was more than 10000 nM; in test [2], 513 nM. Also, the Ki in test [3] (20 nM enz.) amounted to 0.156 µM. Moreover, the kinact in test [3] turned out to be 2.62e-05 s⁻¹. Further, the kinact/KI in test [3] (setting [4]) worked out at 168 M⁻¹ s⁻¹.
`C#Cc1cc(C2CN([C@H]3CCN(C(=O)C=C)C3)C2)cc2c1O[C@@H](C)c1c(ncnc1N1CCS(=O)(=O)CC1)N2` [compound 194]: the IC50 was more than 10000 nM in test [1] and 158 nM in test [2]. In test [3] (20 nM enz.), this molecule had a Ki of 0.0177 µM. Further, the kinact in test [3] was found to be 2.42e-05 s⁻¹. For the same molecule, the kinact/KI in test [3] (setting [4]) worked out at 1370 M⁻¹ s⁻¹.
The like results for `CC#CC(=O)N1CC(N2CCC(c3cc(C)c4c(c3)Nc3ncnc(N5CCOC6(COC6)C5)c3CO4)CC2)C1` [compound 195] were, in that order, more than 10000 nM, 102 nM, 0.108 µM, 5.21e-05 s⁻¹ and 485 M⁻¹ s⁻¹.
